Source: ChEMBL document CHEMBL1201862, “PubChem BioAssay data set” (2004)
Calls of active or inactive are those of the source. Rule as the data show it, for most assays here: actives have a measured EC50 and inactives only a lower limit.

Columns and labels:
[1] = tested on: H4; assay: Luminescence Cell-Based Dose Response HTS to Identify Activators of 5'UTR Stem-Loop Driven Prion Protein mRNA Translation in H4 Neuroglioblastoma Cells. [Related pubchem assays: 1829 (Project Summary), 1814 (Primary HTS)]; format: functional; settings: Homo sapiens
[2] = Luminescence Cell-Based Dose Response HTS to Identify Activators of Luciferase Translation or Activity in H4 […] Cells. [Related pubchem assays: 1829 (Project Summary), 1814 (Primary HTS)]; format: functional
[3] = Luminescence Cell-Based Dose Confirmation HTS to Identify Activators of 5'UTR Stem-Loop Driven Alpha-Synuclein mRNA Translation in H4 Neuroglioblastoma Cells. [Related pubchem assays: 1829 (Project Summary), 1814 (Primary HTS)]; format: functional
[4] = Trypanosoma cruzi growth suppression in host cells – NIH3T3 host cells, beta-gal luminescence, confirmation (AID 2044); format: functional, cell-based;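 also: intracellular parasites grown in NIH/3T3 mouse fibroblasts as host cells; luminescent beta-galactosidase reporter signal from transgenic T. cruzi replicating inside host cells; inhibitors lower the luminescence signal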
[5] = NIH3T3 cell viability loss – ATP luminescence, mouse fibroblasts, counter-screen, dose response (AID 2010); format: functional, cell-based;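 also: cells exposed to compound for about 90 hours before reading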
[6] = molecular target: T1, RNA-binding protein pos-1 (Caenorhabditis elegans, UniProt G5EF15); assay: disruptors of C. elegans POS-1 RNA interaction – biochemical, fluorescence polarization, dose response (AID 1964);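 also: purified POS-1 fused to maltose binding protein made in E. coli; potency of compounds blocking POS-1 binding to fluorescent RNA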
T1 sequence (G5EF15 whole entry): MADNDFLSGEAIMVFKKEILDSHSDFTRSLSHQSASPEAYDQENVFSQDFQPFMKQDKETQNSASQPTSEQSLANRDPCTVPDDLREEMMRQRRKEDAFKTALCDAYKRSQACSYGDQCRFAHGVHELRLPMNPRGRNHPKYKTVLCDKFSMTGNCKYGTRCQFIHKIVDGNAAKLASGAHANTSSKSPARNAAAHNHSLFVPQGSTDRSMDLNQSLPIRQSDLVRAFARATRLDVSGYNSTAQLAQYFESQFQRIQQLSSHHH

[7] = molecular target: T2, Zinc finger protein mex-5 (Caenorhabditis elegans, UniProt Q9XUB2); assay: potency of MEX-5 RNA-binding blockers – biochemical, C. elegans, fluorescence polarization, dose response (AID 1960)
T2 sequence (Q9XUB2 whole entry): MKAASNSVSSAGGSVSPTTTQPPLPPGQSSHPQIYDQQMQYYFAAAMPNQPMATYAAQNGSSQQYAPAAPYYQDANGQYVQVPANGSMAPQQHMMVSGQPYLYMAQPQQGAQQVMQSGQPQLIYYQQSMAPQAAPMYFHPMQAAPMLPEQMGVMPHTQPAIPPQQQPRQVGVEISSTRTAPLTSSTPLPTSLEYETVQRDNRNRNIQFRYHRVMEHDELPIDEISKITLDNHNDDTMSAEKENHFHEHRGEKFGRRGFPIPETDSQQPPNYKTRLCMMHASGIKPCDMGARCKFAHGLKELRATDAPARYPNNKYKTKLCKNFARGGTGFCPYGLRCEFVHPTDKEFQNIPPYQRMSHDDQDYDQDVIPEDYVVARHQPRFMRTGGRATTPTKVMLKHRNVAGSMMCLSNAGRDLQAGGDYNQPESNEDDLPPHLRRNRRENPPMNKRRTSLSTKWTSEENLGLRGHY

[8] = molecular target: Cytochrome P450 2D6 (Homo sapiens, UniProt P10635);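 also: CYP2D6 member of a cytochrome P450 panel assay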
[9] = molecular target: T3, Streptokinase A (Streptococcus pyogenes serotype M1, UniProt P10520); assay: viability-normalized secreted streptokinase activity reduction – plasminogen activation absorbance, OD405, dose response (AID 1914); format: functional, Streptococcus pyogenes M1 GAS;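 also: secreted streptokinase activity via plasminogen activation per viability signal from cell pellet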
T3 sequence (P10520 whole entry): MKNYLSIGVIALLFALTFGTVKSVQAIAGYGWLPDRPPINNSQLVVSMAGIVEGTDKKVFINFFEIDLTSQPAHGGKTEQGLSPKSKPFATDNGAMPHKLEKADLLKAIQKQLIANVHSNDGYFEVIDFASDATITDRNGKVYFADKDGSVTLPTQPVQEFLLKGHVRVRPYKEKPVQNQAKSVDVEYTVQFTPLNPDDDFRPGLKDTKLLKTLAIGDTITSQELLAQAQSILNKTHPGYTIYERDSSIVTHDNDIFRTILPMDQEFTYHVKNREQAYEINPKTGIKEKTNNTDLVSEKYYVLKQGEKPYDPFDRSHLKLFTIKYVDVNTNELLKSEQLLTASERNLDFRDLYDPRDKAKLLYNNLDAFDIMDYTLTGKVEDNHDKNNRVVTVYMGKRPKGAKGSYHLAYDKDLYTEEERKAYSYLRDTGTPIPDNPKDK

[10] = tested on: Streptococcus; assay: GAS UMAA2166 growth inhibition – luminescence, BacTiterGlo, counter-screen for streptokinase expression inhibitor project, dose response (AID 1915); format: functional, organism-based;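 also: potency for reduction of bacterial viability or growth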
[11] = tested on: Streptococcus sp. 'group A'; assay: Streptococcus pyogenes SK(-)GAS viability under kanamycin – luminescence, BacTiterGlo, confirmation, counter-screen for streptokinase expression inhibitor project, dose response (AID 1900); format: functional, organism-based
[12] = molecular target: Cytochrome P450 2C9 (Homo sapiens, UniProt P11712)
[13] = molecular target: T4, Heat shock factor protein 1 (Mus musculus, UniProt P38532); assay: decrease of HSF1-responsive luciferase luminescence – cell-based, NIH3T3, dose retest, confirmation (AID 2382); format: functional;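 also: NIH3T3 fibroblasts with HSF1-driven luciferase reporter stressed by proteasome inhibitor MG132; luminescence from HSF1-driven luciferase expression after 8 hours of MG132 stress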
T4 sequence (P38532 whole entry): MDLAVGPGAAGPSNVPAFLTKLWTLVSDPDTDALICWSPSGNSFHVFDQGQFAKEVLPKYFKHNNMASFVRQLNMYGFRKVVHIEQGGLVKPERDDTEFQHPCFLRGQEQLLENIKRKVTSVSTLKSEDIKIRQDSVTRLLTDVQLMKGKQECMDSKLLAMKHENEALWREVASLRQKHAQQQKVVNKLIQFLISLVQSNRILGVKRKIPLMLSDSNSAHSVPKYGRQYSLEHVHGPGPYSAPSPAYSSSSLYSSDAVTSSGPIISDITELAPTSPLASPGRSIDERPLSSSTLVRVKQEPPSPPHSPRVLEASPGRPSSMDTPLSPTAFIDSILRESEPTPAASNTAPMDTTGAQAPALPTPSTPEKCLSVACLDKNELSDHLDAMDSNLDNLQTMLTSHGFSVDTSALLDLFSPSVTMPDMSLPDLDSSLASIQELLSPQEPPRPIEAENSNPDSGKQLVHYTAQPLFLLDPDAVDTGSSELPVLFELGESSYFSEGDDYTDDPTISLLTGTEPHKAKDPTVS

[14] = Luminescence Cell-Based Dose Retest to Confirm Inhibitors of Cancer Stem Cells. [Related pubchem assays (depositor defined):AID2717, AID2721]; format: functional; settings: Homo sapiens
[15] = Luminescence Cell-Based Dose Confirmation HTS to Identify Inhibitors of Platelet Dense Granule Release. [Related pubchem assays: 1663 (Primary HTS), 1678 (Summary of Project)]; format: functional
[16] = molecular target: Luciferin 4-monooxygenase (Photinus pyralis, UniProt P08659); assay: inhibition of purified Photinus pyralis luciferase – biochemical, luminescence, dose response (AID 1891)
[17] = tested on: INS1; assay: INS-1E survival protection against cytokine death – cell-based, luminescence, retest, dose response (AID 449756); format: functional; settings: Rattus norvegicus;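 also: cell death triggered by IL-1 beta plus TNF-alpha plus IFN-gamma mixture; protective hits raise ATP signal compared with cytokine alone wells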
[18] = molecular target: T5, Rac GTPase-activating protein 1 (Homo sapiens, UniProt Q9H0H5); assay: blockers of MgcRacGAP-driven Rac1 GTP hydrolysis – biochemical, ADP Hunter fluorescence, primary and confirmatory, confirmation (AID 624330); format: functional
T5 sequence (Q9H0H5 whole entry): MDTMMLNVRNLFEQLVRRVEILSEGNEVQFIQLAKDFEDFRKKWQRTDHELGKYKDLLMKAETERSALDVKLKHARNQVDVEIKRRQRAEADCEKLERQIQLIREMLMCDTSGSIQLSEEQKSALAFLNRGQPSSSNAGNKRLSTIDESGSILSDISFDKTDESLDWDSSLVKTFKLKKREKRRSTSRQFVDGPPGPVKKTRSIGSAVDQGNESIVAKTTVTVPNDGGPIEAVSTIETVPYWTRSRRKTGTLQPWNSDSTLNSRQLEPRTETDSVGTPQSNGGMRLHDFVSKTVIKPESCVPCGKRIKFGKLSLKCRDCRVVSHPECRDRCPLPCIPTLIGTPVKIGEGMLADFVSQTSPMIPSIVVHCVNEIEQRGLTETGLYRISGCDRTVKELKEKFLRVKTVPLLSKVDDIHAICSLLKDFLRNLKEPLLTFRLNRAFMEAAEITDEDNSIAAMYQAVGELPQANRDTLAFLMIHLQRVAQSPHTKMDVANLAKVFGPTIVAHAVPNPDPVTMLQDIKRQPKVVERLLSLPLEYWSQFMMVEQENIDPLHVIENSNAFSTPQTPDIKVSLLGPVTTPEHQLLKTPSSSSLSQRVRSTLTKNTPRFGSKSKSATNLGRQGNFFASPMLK

Luciferin 4-monooxygenase, sequence (P08659 whole entry): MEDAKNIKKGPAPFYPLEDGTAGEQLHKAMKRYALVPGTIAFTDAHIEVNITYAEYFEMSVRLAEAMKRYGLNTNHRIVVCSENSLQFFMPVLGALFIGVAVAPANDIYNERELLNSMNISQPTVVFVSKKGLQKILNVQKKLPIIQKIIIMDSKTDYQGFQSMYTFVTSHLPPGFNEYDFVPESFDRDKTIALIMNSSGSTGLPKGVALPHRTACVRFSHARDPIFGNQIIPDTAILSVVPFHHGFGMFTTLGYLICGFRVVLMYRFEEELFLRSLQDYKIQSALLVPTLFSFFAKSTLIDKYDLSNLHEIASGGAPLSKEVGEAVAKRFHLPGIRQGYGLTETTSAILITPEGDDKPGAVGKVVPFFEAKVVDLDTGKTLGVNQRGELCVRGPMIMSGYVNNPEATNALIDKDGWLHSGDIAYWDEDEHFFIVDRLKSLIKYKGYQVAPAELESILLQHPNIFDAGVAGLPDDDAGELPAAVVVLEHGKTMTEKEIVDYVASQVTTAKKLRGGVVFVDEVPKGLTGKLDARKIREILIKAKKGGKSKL
Cytochrome P450 2D6, sequence (P10635 whole entry): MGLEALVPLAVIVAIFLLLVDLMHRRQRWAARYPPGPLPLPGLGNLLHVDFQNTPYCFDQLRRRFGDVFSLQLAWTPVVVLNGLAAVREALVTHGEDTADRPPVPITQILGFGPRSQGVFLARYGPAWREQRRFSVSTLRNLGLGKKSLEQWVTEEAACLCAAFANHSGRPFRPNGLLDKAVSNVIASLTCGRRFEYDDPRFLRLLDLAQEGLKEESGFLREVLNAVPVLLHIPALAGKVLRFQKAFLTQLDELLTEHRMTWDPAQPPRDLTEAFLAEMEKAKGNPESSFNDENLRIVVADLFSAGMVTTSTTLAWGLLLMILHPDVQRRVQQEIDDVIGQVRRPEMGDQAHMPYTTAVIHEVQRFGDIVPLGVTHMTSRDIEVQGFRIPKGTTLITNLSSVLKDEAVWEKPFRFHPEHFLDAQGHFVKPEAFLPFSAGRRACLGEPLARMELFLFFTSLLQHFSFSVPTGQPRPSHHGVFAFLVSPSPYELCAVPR
Cytochrome P450 2C9, sequence (P11712 whole entry): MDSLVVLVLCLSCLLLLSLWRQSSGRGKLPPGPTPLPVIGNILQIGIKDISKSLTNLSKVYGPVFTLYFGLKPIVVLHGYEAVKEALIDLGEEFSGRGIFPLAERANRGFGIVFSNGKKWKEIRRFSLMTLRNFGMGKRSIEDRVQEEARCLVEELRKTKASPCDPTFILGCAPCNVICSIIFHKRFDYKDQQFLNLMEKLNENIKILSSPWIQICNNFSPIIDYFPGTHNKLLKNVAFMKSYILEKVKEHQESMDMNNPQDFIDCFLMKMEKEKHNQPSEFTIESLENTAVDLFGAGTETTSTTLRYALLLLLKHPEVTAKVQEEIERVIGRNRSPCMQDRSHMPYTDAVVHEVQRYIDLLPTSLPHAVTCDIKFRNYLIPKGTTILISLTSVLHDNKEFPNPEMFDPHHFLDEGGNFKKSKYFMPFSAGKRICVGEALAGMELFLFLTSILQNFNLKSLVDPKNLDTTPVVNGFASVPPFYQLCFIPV

SMILES | EC50 [1] | EC50 [2] | EC50 [3] | EC50 [9] | EC50 [10] | EC50 [11] | also measured
CC1Cc2nc(SCC(=O)Nc3ccc4c(c3)OCO4)n(Cc3ccccc3)c(=O)c2S1 (configuration not stated) | 13.2 µM (active) | 5.9 µM (active) | 10.8 µM (active) | – | – | – | –
Cc1cc(C(=O)COC(=O)Cc2nnc(O)c3ccccc23)c(C)n1-c1ccc2c(c1)OCCO2 | 71.5 µM (active) | > 120 µM (not active) | > 120 µM (not active) | – | – | – | EC50 [4]: 2.28 µM (active); EC50 [5]: > 60 µM (not active)
O=C(c1ccc(F)cc1)N1CCN(C2CCC(c3ccccc3)CC2)CC1 (configuration not stated) | – | – | – | – | – | – | EC50 [6]: > 300 µM (not active); EC50 [7]: > 300 µM (not active)
Fc1ccc(C2=CC(c3ccco3)n3ncnc3N2)cc1 (configuration not stated) | – | – | – | – | – | – | EC50 [6]: 14.7 µM (active); EC50 [7]: 12.8 µM (active)
c1ccn2c(c1)nc1c2nc2ccccn21 | > 120 µM (not active) | 25.1 µM (active) | 7.67 µM (active) | – | – | – | –
CC(C)(C)NC(=O)CN(Cc1cccs1)C(=O)CCC(=O)Nc1nccs1 | – | – | – | – | – | – | AC50 [8]: 28.2 µM (inconclusive)
CCc1sc(N(C(=O)Cc2ccccc2)c2ccc(F)cc2)nc1-c1ccccc1 | – | – | – | 11.8 µM (active) | > 150 µM (not active) | > 150 µM (not active) | –
CCc1ccc2[nH]c(O)c(N=Nc3nc(-c4ccccc4)cs3)c2c1 | – | – | – | > 150 µM (not active) | 27.3 µM (active) | 9.51 µM (active) | AC50 [12]: 39.8 µM (inconclusive); EC50 [13]: > 195 µM (not active)
CC(C)(C)c1cc(C(=O)NNc2cc(C(F)(F)F)ccc2Cl)n(Cc2ccccc2)n1 | – | – | – | > 150 µM (not active) | 8.74 µM (active) | 3.24 µM (active) | AC50 [14]: 3.81 µM (active)
CC(C)C(C(=O)Nc1nccs1)c1ccc(Cl)cc1 (configuration not stated) | – | – | – | > 150 µM (not active) | > 150 µM (not active) | 12.7 µM (active) | –
O=C(C1CCCN(c2ncnc3c2nc2n3CCCCC2)C1)N1CCN(c2ccccc2)CC1 (configuration not stated) | > 120 µM (not active) | > 120 µM (not active) | > 120 µM (not active) | – | – | – | –
Oc1nc(CN2CCN(C/C=C/c3ccccc3)CC2)nc2ccccc12 | > 120 µM (not active) | > 120 µM (not active) | > 120 µM (not active) | – | – | – | EC50 [4]: 0.637 µM (active); EC50 [5]: > 60 µM (not active)
COC(=O)/C(C#N)=C/c1c(Oc2cc(C)cc(C)c2)nc2c(C)cccn2c1=O | – | – | – | – | – | – | EC50 [6]: 104 µM (active); EC50 [7]: > 300 µM (not active)
Cc1cccc(NC(S)=Nc2ccc3c[nH]nc3c2)c1 | – | – | – | – | – | – | EC50 [15]: > 112 µM (not active); EC50 [16]: > 112 µM (not active); AC50 [17]: > 260 µM (inactive)
COc1cc(/C=N/c2oc(-c3ccccc3)cc2C#N)ccc1O | – | – | – | – | – | – | EC50 [6]: > 300 µM (not active); EC50 [7]: > 300 µM (not active)
COCCNC(=O)C1Nc2ccc(OC(F)(F)F)cc2C2C=CCC12 (configuration not stated) | – | – | – | – | – | – | EC50 [6]: > 300 µM (not active); EC50 [7]: > 300 µM (not active)
Cc1ccc2cc(CN(Cc3cccs3)C(=O)c3ccco3)c3nnnn3c2c1C | – | – | – | > 150 µM (not active) | 31.7 µM (active) | 2.28 µM (active) | –
Clc1ccc(N2COC3c4cccc5cccc(c45)C32)cc1 (configuration not stated) | – | – | – | 14.2 µM (active) | > 150 µM (not active) | 17.4 µM (active) | –
Cc1ccc(O)c(/C=N/NC(=O)Cc2ccc(Cl)cc2)c1 | – | – | – | > 150 µM (not active) | 13.6 µM (active) | 3.25 µM (active) | –
Nc1c(Cl)ncnc1N/N=C/c1ccc(O)cc1 | – | – | – | – | – | – | EC50 [15]: 0.779 µM (active); EC50 [16]: 7.55 µM (active); IC50 [18]: 16.5 µM (active)
CC(C)[C@@H]1COC(c2cccc(C3=N[C@H](C(C)C)CO3)c2)=N1 | 10.6 µM (active) | 71.1 µM (active) | > 120 µM (not active) | – | – | – | –
CCCCn1c(CCCNC(=O)c2ccco2)nc2ccccc21 | – | – | – | > 150 µM (not active) | > 150 µM (not active) | > 150 µM (not active) | –
COc1cc2c(cc1NC(=O)CN1CCN(S(=O)(=O)c3ccccc3F)CC1)oc1ccccc12 | > 120 µM (not active) | > 120 µM (not active) | > 120 µM (not active) | – | – | – | –
COc1ccc(NC(=O)CCl)cn1 | – | – | – | – | – | – | EC50 [6]: 9.67 µM (active); EC50 [7]: 8.06 µM (active)
CC(C)C[C@H](NC(=O)N1CC(=O)Nc2ccccc21)C(=O)N[C@H](C(=O)O)c1ccccc1 | – | – | – | > 150 µM (not active) | > 150 µM (not active) | > 150 µM (not active) | –
C=CCOc1c(Cl)cc(C(=S)N2CCCC2)cc1OCC | 30.3 µM (active) | > 120 µM (not active) | > 120 µM (not active) | – | – | – | –
